# US20190060428A1, “FORMULATIONS FOR NEOPLASIA VACCINES AND METHODS OF PREPARING THEREOF” (The Broad Institue Inc., priority 2015, published 2019)
# Test: physchem
# Settings: pH 6
row,Substance,solubility [µg/mL]
1,H-LSVPFTCGVNFGDSIEDLEI-OH,> 2000
2,H-KMQRRNDDKSILMHGLVSLRESSRG-OH,> 2000
3,H-DDSLHIQATYISGPVLAGSGD-OH,> 2000
4,H-LHTHYDYVSALHPVSTPSKEYTSA-OH,> 2000
5,H-NNGPVTILQRIHHMAASHVNITS-OH,< 2000
6,H-SERYIGTEGGGMDQSILFLAEEGTAK-OH,< 2000
7,H-RARQILIASHLPFYELRHNQVES-OH,> 2000
8,H-AAVDSVTIPPAQCYLSLLHLQQRRMQSA-OH,> 2000
9,H-DPLMTCSEPERLTEILFQRAELE-OH,< 2000
10,H-NNSKKKWFLFQDSKKIQVEQPQ-OH,> 2000
11,H-LNYLRTAKFLEMYGVDLHPVYG-OH,< 2000
12,H-EDSDKLFESKAELADHQKF-OH,> 2000
13,H-LTKLKFSLKKSFNFFDEYF-OH,< 2000
14,H-RLVLGKFGDLTNNFSSPHAR-OH,> 2000
15,H-SSPLGRANGRRFANPRDSFSAMGFQR-OH,> 2000
16,H-FKMDRQGVTQVLSCLSYISALGMMT-OH,< 2000
17,H-SAVSAASIPAEHINQATNGGGS-OH,> 2000
18,H-DKGHQFHVHPLLHSGDDLDP-OH,> 2000
19,H-NILHQEELIAQKKWEIEAKMEQK-OH,> 2000
20,H-LKEMNEKVSFIKNSLLSLDSQVGHLQD-OH,< 2000
21,H-TISLLLIFYNTKEIARTEEHQE-OH,< 2000
22,H-SHTQTTLFHTFYELLIQKNKHK-OH,> 2000
23,H-PAAVDSVTIPPAQCYLSLLHL-OH,> 2000
24,H-EEFNRRVRENPWDTQLWMAFVAFQDE-OH,< 2000
25,H-STLPVISDSTTKRRWSALVIGL-OH,> 2000
26,H-WTPAAPTAMAEVGPGHTPAHPSQGAVPP-OH,> 2000
27,H-DPDVGVNSLQQYYLSPDLHFSLI-OH,< 2000

row,Substance,solubility [µg/mL]
1,H-DDNGNILDPDKTSTIALFKAHEV-OH,> 2000
2,H-SPQSGGAATLAAQARLQPVHLDVWGEHERG-OH,> 2000
3,H-VQLSIQDVIRRARLSTVPTAQRVALRSGWI-OH,> 2000
4,H-VAGLAASGLHGSAWLVPGEQPVSGPHHGKQ-OH,> 2000
5,H-PRVDLQGAELWKRLHEIGTEMIITK-OH,> 2000
6,H-TGKPEMDFVRLAQLFARARPMGLF-OH,> 2000
7,H-AALCPASRALEEKKGNYV-OH,> 2000
8,H-LARDIPPAVTGKWKLSDLRRYGAVPSG-OH,> 2000
9,H-GLEQLESIINFEKL-OH,> 2000
10,H-TTTSVKKEELVLSEEDFQGITPGAQ-OH,< 2000
11,H-IGALNPKRAAFFAEHYESWE-OH,< 2000
12,H-AQRKLYQDVMHENFTNLLSVGHQP-OH,> 2000
13,H-KHLPGVNFPGNQWNPVEGILPS-OH,> 2000
14,H-LMSNLAFADFCMRMYL-OH,< 2000
15,H-EVVGGYTWPSGNIYQGYWAQGKR-OH,> 2000
16,H-DASDFLPDTQLFPHFTELLLPLDPLEGSSV-OH,> 2000
17,H-TSRRLTGLLDHEVQAGRQ-OH,> 2000
18,H-DEQGREAELARSGPSAAGPVRLKPGLVPGL-OH,> 2000
19,H-STEVEPKESPHLARHRHLMKTLVKSLST-OH,> 2000
20,H-VEQGHVRVGPDVVTHPAFLV-OH,> 2000
21,H-AASAAAFPSQRTSWEFLQSLVSIKQEK-OH,> 2000
22,H-DVGVNSLQQYYLSPDLHFSLIQKENLD-OH,< 2000
23,H-SHLASLKNNVSPVLRSHSFSDPSPKFA-OH,> 2000
24,H-WDGPPENDMLLKEICGSLIP-OH,> 2000
25,H-DATFSDGSLGQLVKNTSATYALS-OH,> 2000
26,H-LLDILDTAGREEYSAMRDQYMRT-OH,> 2000
27,H-AHRQGEKQHLLPVFSRLALRLPWRHSVQL-OH,> 2000

row,Substance,solubility [µg/mL]
1,H-FPVVQSTEDVFPQGLPNEYAFVT-OH,> 2000
2,H-MAGPKGFQYRALYPFRRER-OH,> 2000
3,H-TTSGDERLYPSPTFYIHENYLQLFE-OH,< 2000
4,H-MPPPGALMGLALKKKSIPQPTN-OH,> 2000
5,H-LPDEVSGLEQLESIINFEKLTEWTSSNVME-OH,> 2000
6,H-VTSPKASPVTFPAAAFPTASPANKD-OH,> 2000
7,H-MSQDIKKADEQIESMTYSTERKT-OH,> 2000
8,H-RPAGRTQLLWTPAAPTAMAEVGPGHTP-OH,> 2000
9,H-SGSPPLRVSVGDFSQEFSPIQEAQQD-OH,> 2000
10,H-TNGPEKNSSSFPSSVDYAASGPRKL-OH,> 2000
11,H-TLDDIKEWLEDEGQVLNIQMRRTLHK-OH,< 2000
12,H-GPLQLPVTRKNMPLPGVVKLPPLPGS-OH,> 2000
13,H-NQVLASRYGIRGFSTIKIFQKGESPV-OH,> 2000
14,H-LGETMGQVTEKLQPTYMEET-OH,> 2000
15,H-VKQLERGEASVVDFKKNLEYAAT-OH,> 2000
16,H-HLLQKQTSIQSPSLYGNSSPPLNK-OH,> 2000
17,H-KQYLDHSGNLMSMHNIKIFMFQLLRG-OH,< 2000
18,H-STQHADLTIIDNIKEMNFLRRYK-OH,> 2000
19,H-ASATEPANDSLFSPGAANLFSTYLAR-OH,> 2000
20,H-DRSVLAKKLKFVTLVFRHGDRSPID-OH,> 2000
21,H-DSPAGPRRKECTMALAPNFTANNR-OH,> 2000
22,H-TSGSSTALPGSNPSTMDSGSGD-OH,< 2000
23,H-AIYHKYYHYLYSYYLPASLKNMVD-OH,< 2000
24,H-SMWKGELYRQNRFASSKESAKLYGS-OH,< 2000
25,H-TIKNSDKNVVLEHFG-OH,> 2000
26,H-SEIDFPMARSKLLKKKLPSKDL-OH,> 2000
27,H-ALCPASRALEEKKGNYVV-OH,> 2000

row,Substance,solubility [µg/mL]
1,H-EAAFSVGATGIITDYPTALRHYLDNHG-OH,< 2000
2,H-SHHTHSYQRYSHPLFLPGHRLDPPI-OH,> 2000
3,H-DNHLRRNRLIVVDLFHGQL-OH,> 2000
4,H-FLLQVPGSPVVSPSA-OH,> 2000
5,H-DLSYVSDQNGGVPDQILLHLRPTED-OH,> 2000
6,H-TKDRDLLVVAHDLIWKMSPRTGDAKPS-OH,> 2000
7,H-SGQPAPEETVLFLGLLHGLLLILRRLRGG-OH,< 2000
8,H-GSTLSPVPWLPSEEFTLWSSLSPPG-OH,> 2000
9,H-EIHGKCENMTITSRGTTVTPTKETVSLG-OH,> 2000
10,H-LENNANHDETSFLLPRKESNIVD-OH,> 2000
11,H-ADRRRQRSTFRAVLHFVEGGESEE-OH,< 2000
12,H-LVGQLKRVPRTGRVYRNVQRPESVS-OH,> 2000
13,H-LNTGLFRIKFKEPLENLI-OH,> 2000
14,H-GLTRISIQRAQPLPPCLPSFRPPTALQGLS-OH,> 2000
15,H-SKRGVGAKTLLLPDPFLFWPCLEGTRRSL-OH,> 2000
16,H-DGGRQHSGPRRHSGAGPKPSSSEWAVCWAP-OH,> 2000
17,H-GAVGATKVPRNQDWL-OH,> 2000
18,H-LSPREEFLRLCKKIMMRSIQ-OH,> 2000
19,H-SLTEESGGAVAFFPGNLSTSSSA-OH,> 2000
20,H-GHQKLPGKIHLFEAEFTQVAKKEPDG-OH,> 2000
21,H-YRMYQKGQETSTNLIASIFA-OH,< 2000
22,H-LHFIMPEKFSFWEDFEE-OH,< 2000
23,H-GSGALGAVGATKVPRNQDWL-OH,> 2000
24,H-PASAKSRREFDKIELAYRR-OH,> 2000
